# Reference: PubChem BioAssay AID1259407 (Chemical Carcinogenesis Research Information System (CCRIS), 2018)
# The source made the active and inactive calls. How the calls were made is not given here.
# Tested on: CCRIS mutagenicity, Ames/micronucleus/aberration tests
# Assay: CCRIS mutagenicity studies
# [1] = Test System: AMES SALMONELLA TYPHIMURIUM, Strain/Indicator: TA98, Metabolic Activation: NONE, Method: STANDARD PLATE
# [2] = Test System: AMES SALMONELLA TYPHIMURIUM, Strain/Indicator: TA98, Metabolic Activation: RAT, LIVER, S-9, AROCLOR 1254, Method: STANDARD PLATE
# [3] = Test System: AMES SALMONELLA TYPHIMURIUM, Strain/Indicator: TA100, Metabolic Activation: NONE, Method: STANDARD PLATE
# [4] = Test System: AMES SALMONELLA TYPHIMURIUM, Strain/Indicator: TA100, Metabolic Activation: RAT, LIVER, S-9, AROCLOR 1254, Method: STANDARD PLATE
# [5] = Test System: AMES SALMONELLA TYPHIMURIUM, Strain/Indicator: TA1535, Metabolic Activation: NONE, Method: STANDARD PLATE
# [6] = Test System: AMES SALMONELLA TYPHIMURIUM, Strain/Indicator: TA1535, Metabolic Activation: RAT, LIVER, S-9, AROCLOR 1254, Method: STANDARD PLATE
# [7] = Test System: AMES SALMONELLA TYPHIMURIUM, Strain/Indicator: TA1537, Metabolic Activation: NONE, Method: STANDARD PLATE
# [8] = Test System: AMES SALMONELLA TYPHIMURIUM, Strain/Indicator: TA1537, Metabolic Activation: RAT, LIVER, S-9, AROCLOR 1254, Method: STANDARD PLATE
# [9] = Test System: AMES SALMONELLA TYPHIMURIUM, Strain/Indicator: TA100, Metabolic Activation: RAT, LIVER, S-9, PHENOBARBITAL AND 5,6-BENZOFLAVONE, Method: PREINCUBATION
structure (smiles),measurement,setting,value
CN(C)CC/C=C1\c2ccccc2COc2ccccc21,mutagenic call,[1],inactive; negative
same,mutagenic call,[2],inactive; negative
same,mutagenic call,[3],inactive; negative
same,mutagenic call,[4],inactive; negative
same,mutagenic call,[5],inactive; negative
same,mutagenic call,[6],inactive; negative
same,mutagenic call,[7],inactive; negative
same,mutagenic call,[8],inactive; negative
CC(=O)Oc1cc(C=O)cc2c1C(COC(N)=O)C1(OC(C)=O)ON2CC2C1N2C(C)=O (stereo unspecified),mutagenic call,"Test System: AMES SALMONELLA TYPHIMURIUM, Strain/Indicator: TA98, Metabolic Activation: NONE, Method: PREINCUBATION",inactive; negative
same,mutagenic call,"Test System: AMES SALMONELLA TYPHIMURIUM, Strain/Indicator: TA98, Metabolic Activation: RAT, LIVER, S-9, PHENOBARBITAL AND 5,6-BENZOFLAVONE, Method: PREINCUBATION",inactive; negative
same,mutagenic call,"Test System: AMES SALMONELLA TYPHIMURIUM, Strain/Indicator: TA100, Metabolic Activation: NONE, Method: PREINCUBATION",inactive; negative
same,mutagenic call,[9],inactive; negative
same,mutagenic call,"Test System: AMES SALMONELLA TYPHIMURIUM, Strain/Indicator: TA102, Metabolic Activation: NONE, Method: PREINCUBATION",inactive; negative
same,mutagenic call,"Test System: AMES SALMONELLA TYPHIMURIUM, Strain/Indicator: TA102, Metabolic Activation: RAT, LIVER, S-9, PHENOBARBITAL AND 5,6-BENZOFLAVONE, Method: PREINCUBATION",active; positive
same,mutagenic call,"Test System: AMES SALMONELLA TYPHIMURIUM, Strain/Indicator: TA1535, Metabolic Activation: NONE, Method: PREINCUBATION",inactive; negative
same,mutagenic call,"Test System: AMES SALMONELLA TYPHIMURIUM, Strain/Indicator: TA1535, Metabolic Activation: RAT, LIVER, S-9, PHENOBARBITAL AND 5,6-BENZOFLAVONE, Method: PREINCUBATION",inactive; negative
same,mutagenic call,"Test System: AMES SALMONELLA TYPHIMURIUM, Strain/Indicator: TA1537, Metabolic Activation: NONE, Method: PREINCUBATION",inactive; negative
same,mutagenic call,"Test System: AMES SALMONELLA TYPHIMURIUM, Strain/Indicator: TA1537, Metabolic Activation: RAT, LIVER, S-9, PHENOBARBITAL AND 5,6-BENZOFLAVONE, Method: PREINCUBATION",inactive; negative
CCN(CC)CCCNc1ccc2nc(C)n3c4ccc(O)cc4c(=O)c1c23,mutagenic call,"Test System: CHINESE HAMSTER V-79, Strain/Indicator: V-79 (HGPRT)/6-THIOGUANINE, Metabolic Activation: NONE",active; positive
Fc1cc2cccnc2c2cccnc12,mutagenic call,[9],active; positive
COc1cc2c(c(OC)c1OC)-c1ccc(OC)c(=O)cc1[C@@H](NC(C)=O)CC2,mutagenic call,"End Point: IN VITRO CHROMOSOMAL ABERRATIONS, Test System: CHINESE HAMSTER OVARY CELLS, Metabolic Activation: NONE",active; positive (ploidy changes)
same,mutagenic call,"End Point: IN VITRO CHROMOSOMAL ABERRATIONS, Test System: CHINESE HAMSTER OVARY CELLS, Metabolic Activation: RAT, LIVER, S-9, AROCLOR 1254",inactive; negative
same,mutagenic call,"End Point: IN VITRO MICRONUCLEUS, Test System: CHL/IU CELLS, Metabolic Activation: NONE",active; positive
same,mutagenic call,"End Point: IN VIVO MICRONUCLEUS, Test System: BLOOD ERYTHROCYTES, Species: MOUSE, Strain/Sex: CD-1/MALE, Route: ORAL",active; positive
same,mutagenic call,"End Point: In vitro micronucleus, Test System: Mouse lymphoma L5178Y cells, Metabolic Activation: None",active; positive
same,mutagenic call,"End Point: In vivo micronucleus, Test System: Micronucleated, binucleated and multinucleated hepatocytes, Species: Mouse, Strain/Sex: ddY/Male, Route: Intravenous",active; positive for binucleated and multinucleated cells when agent administered after
same,mutagenic call,"Test System: AMES SALMONELLA TYPHIMURIUM, Strain/Indicator: TA98, Metabolic Activation: HAMSTER, LIVER, S-9, AROCLOR 1254, Method: STANDARD PLATE",inactive; negative
same,mutagenic call,[1],inactive; negative
same,mutagenic call,[2],inactive; negative
same,mutagenic call,"Test System: AMES SALMONELLA TYPHIMURIUM, Strain/Indicator: TA100, Metabolic Activation: HAMSTER, LIVER, S-9, AROCLOR 1254, Method: STANDARD PLATE",inactive; negative
same,mutagenic call,[3],inactive; negative
same,mutagenic call,[4],inactive; negative
same,mutagenic call,"Test System: AMES SALMONELLA TYPHIMURIUM, Strain/Indicator: TA1535, Metabolic Activation: HAMSTER, LIVER, S-9, AROCLOR 1254, Method: STANDARD PLATE",inactive; negative
same,mutagenic call,[5],inactive; negative
same,mutagenic call,[6],inactive; negative
same,mutagenic call,"Test System: AMES SALMONELLA TYPHIMURIUM, Strain/Indicator: TA1537, Metabolic Activation: HAMSTER, LIVER, S-9, AROCLOR 1254, Method: STANDARD PLATE",inactive; negative
same,mutagenic call,[7],inactive; negative
same,mutagenic call,[8],inactive; negative
same,mutagenic call,"Test System: AMES SALMONELLA TYPHIMURIUM, Strain/Indicator: TA1538, Metabolic Activation: HAMSTER, LIVER, S-9, AROCLOR 1254, Method: STANDARD PLATE",inactive; negative
same,mutagenic call,"Test System: AMES SALMONELLA TYPHIMURIUM, Strain/Indicator: TA1538, Metabolic Activation: NONE, Method: STANDARD PLATE",inactive; negative
same,mutagenic call,"Test System: AMES SALMONELLA TYPHIMURIUM, Strain/Indicator: TA1538, Metabolic Activation: RAT, LIVER, S-9, AROCLOR 1254, Method: STANDARD PLATE",inactive; negative
same,mutagenic call,"Test System: MOUSE LYMPHOMA, Strain/Indicator: L5178Y (TK+/TK-), Metabolic Activation: NONE",active; positive
same,mutagenic call,"Test System: MOUSE LYMPHOMA, Strain/Indicator: L5178Y (TK+/TK-), Metabolic Activation: NONE, Method: SUSPENSION/PLATE",inactive; negative. reevaluation of results: negative
same,mutagenic call,"Test System: MOUSE LYMPHOMA, Strain/Indicator: L5178Y (TK+/TK-), Metabolic Activation: RAT, LIVER, S-9, AROCLOR 1254, Method: SUSPENSION/PLATE",inactive; negative. reevaluation of results: negative
same,mutagenic call,"Test System: MOUSE LYMPHOMA, Strain/Indicator: L5178Y(TK+/TK-), Metabolic Activation: NONE, Method: MICROWELL",active; positive
same,mutagenic call,"Test System: Mouse lymphoma, Strain/Indicator: L5178Y (tk+/tk-)/Trifluorothymidine, Metabolic Activation: None, Method: Microtiter",inactive; negative
